In US10206937B2, “Boronic acid derivatives and therapeutic uses thereof” (Qpex Biopharma, Inc., priority 2014, dated 2019):
Converted amounts (≈) assume the structure as drawn. Where two headings read alike, the source gives them in different places.

Tests used:
EA1019 (SHV-5, VIM-1) = assay: Carbapenem potentiation against clinical isolate (MIC); format: cell-based, Enterobacter aerogenes
AB1144 (NDM-1) = assay: as above; format: cell-based, Acinetobacter baumannii
KP1014 (VIM-1) = assay: as above; format: cell-based, Klebsiella pneumoniae; details: for Carbapenem MIC Alone: antibiotic alone
[1] = test system: KP1087 (KPC-2, CTX-M-15, SHV-11, TEM-1); assay: as above; format: cell-based; details: for Carbapenem MIC Alone: antibiotic alone
[2] = test system: KP1004 (KPC-2, TEM-1, SHV-11); assay: as above; format: cell-based, Klebsiella pneumoniae; details: for Carbapenem MIC Alone: antibiotic alone
KP1059 (VIM-1, SHV-11) = assay: Biapenem potentiation against clinical isolate (MIC); format: cell-based; details: Klebsiella pneumoniae, biapenem alone
Excerpt: The results are present in Table 9.

[3] = test system: KP1081 (NDM-1, TEM-1, SHV-11, CMY-6, CTX-M-15); assay: Carbapenem potentiation against clinical isolate (MIC); format: cell-based; details: for Carbapenem MIC Alone: antibiotic alone
[4] = test system: KP1074 (KPC-3, SHV-11, TEM); assay: as above; format: cell-based, Klebsiella pneumoniae; details: for Carbapenem MIC Alone: antibiotic alone
[5] = test system: KP1064 (KPC-2, SHV-11, TEM-1); assay: as above; format: cell-based, Klebsiella pneumoniae; details: for Carbapenem MIC Alone: antibiotic alone
[6] = test system: KP1086 (TEM, SHV, CTX-M-15, OXA-48); assay: as above; format: cell-based, Klebsiella pneumoniae; details: for Carbapenem MIC Alone: antibiotic alone
[7] = test system: KP1084 (KPC-3, SHV-11, TEM-1); assay: as above; format: cell-based, Klebsiella pneumoniae; details: for Carbapenem MIC Alone: antibiotic alone
[8] = test system: EC1064 (NDM-1, CMY-6, CTX-M-15); assay: as above; format: cell-based, Escherichia coli; details: for Carbapenem MIC Alone: antibiotic alone
KP1054 (VIM-1, SHV-11) = assay: as above; format: cell-based, Klebsiella pneumoniae; details: for Carbapenem MIC Alone: antibiotic alone
ECM6711 (pUCP24-VIM-1) = format: cell-based, E. coli
[9] = test system: strains of Enterobacteriaceae overexpressing various carbapenemases (class A and B); assay: organism not typed; format: cell-based
Excerpt: Several strains simultaneously expressing both class A and class B carbapenemases, which were constructed using conjugation, were also included in the panel.

ECM6703 (pUCP24-NDM-1) = format: cell-based, E. coli
ECM6704 (pUCP24) = assay: microbe, parasite or virus in culture; format: cell-based, E. coli; details: Escherichia coli, read-out: Imipenem MIC Alone
[10] = Klebsiella pneumoniae, biapenem alone

Which “Carbapenem MIC Alone” value (EA1019 (SHV-5, VIM-1); EA1019, antibiotic alone) does the source give for `C[C@@H](O)[C@H]1C(=O)N2C(C(=O)[O-])=C(SC3Cn4cnc[n+]4C3)[C@H](C)[C@H]12` (stereo partly drawn) [Biapenem] here?
Its value is “Z (MIC of greater than 10 μg/mL)”.

What about the MIC (EA1019 (SHV-5, VIM-1); Klebsiella aerogenes, EA1019, biapenem alone) of the same compound?
Its MIC is greater than 10 µg/mL.

What about the “Carbapenem MIC Alone” value (AB1144 (NDM-1); AB1144, antibiotic alone) of the same compound?
The value was “Y (MIC of 1 μg/mL to 10 μg/mL)”.

What about the MIC (AB1144 (NDM-1); Acinetobacter baumannii, AB1144, biapenem alone) of the same compound?
Its MIC is greater than 10 µg/mL.

And the MIC (KP1014 (VIM-1); [10])?
Its MIC is greater than 10 µg/mL.

What about the “Carbapenem MIC Alone” value (KP1014 (VIM-1)) of the same compound?
The value was “Z (MIC of greater than 10 μg/mL)”.

What about the MIC [1, 10] of the same compound?
The MIC was greater than 10 µg/mL.

And the “Carbapenem MIC Alone” value [1]?
Its value is “Z (MIC of greater than 10 μg/mL)”.

What about the MIC [2, 10] of the same compound?
The MIC was greater than 10 µg/mL.

What about the “Carbapenem MIC Alone” value [2] of the same compound?
The value was “Y (MIC of 1 μg/mL to 10 μg/mL)”.

What about the MIC (KP1059 (VIM-1, SHV-11)) of the same compound?
The MIC was greater than 10 µg/mL.

And the MIC [3, 10]?
Its MIC is greater than 10 µg/mL.

What about the “Carbapenem MIC Alone” value [3] of the same compound?
Its value is “Z (MIC of greater than 10 μg/mL)”.

And the MIC [4, 10]?
The MIC was greater than 10 µg/mL.

And the “Carbapenem MIC Alone” value [4]?
The value was “Z (MIC of greater than 10 μg/mL)”.

And the MIC [5, 10]?
Its MIC is greater than 10 µg/mL.

What about the “Carbapenem MIC Alone” value [5] of the same compound?
The value was “Z (MIC of greater than 10 μg/mL)”.

And the MIC [6, 10]?
The MIC was greater than 10 µg/mL.

And the “Carbapenem MIC Alone” value [6]?
The value was “Z (MIC of greater than 10 μg/mL)”.

What about the MIC [7, 10] of the same compound?
The MIC was greater than 10 µg/mL.

What about the “Carbapenem MIC Alone” value [7] of the same compound?
Its value is “Z (MIC of greater than 10 μg/mL)”.

What about the MIC ([8]; Escherichia coli, biapenem alone) of the same compound?
Its MIC is greater than 10 µg/mL.

What about the “Carbapenem MIC Alone” value [8] of the same compound?
Its value is “Z (MIC of greater than 10 μg/mL)”.

What about the MIC (KP1054 (VIM-1, SHV-11); [10]) of the same compound?
Its MIC is greater than 10 µg/mL.

What about the “Carbapenem MIC Alone” value (KP1054 (VIM-1, SHV-11)) of the same compound?
Its value is “Z (MIC of greater than 10 μg/mL)”.

What does the source list for `C[C@@H](O)[C@H]1C(=O)N2C(C(=O)O)=C(SCCN=CN)C[C@H]12` [Imipenem]?
Carbapenem MIC Alone (EA1019 (SHV-5, VIM-1)): Z (key: X: MIC of less than 1 μg/mL; Y: MIC of 1 μg/mL to 10 μg/mL; Z: MIC of greater than 10 μg/mL); Carbapenem MIC Alone (AB1144 (NDM-1)): Z (key: X: MIC of less than 1 μg/mL; Y: MIC of 1 μg/mL to 10 μg/mL; Z: MIC of greater than 10 μg/mL); Carbapenem MIC Alone (KP1014 (VIM-1)): Z (MIC of greater than 10 μg/mL); Imipenem MIC Alone (ECM6711 (pUCP24-VIM-1)): Y (key: X: MIC of less than 1.0 μg/mL; Y: MIC of 1.0 μ/mL or above); Carbapenem MIC Alone [1]: Y (MIC of 1 μg/mL to 10 μg/mL); MIC [9]: 1 to 10 µg/mL (≈ 3.34 to 33.4 µM); MIC ([9]; Klebsiella aerogenes): > 10 µg/mL; Carbapenem MIC Alone [2]: Z (MIC of greater than 10 μg/mL); Imipenem MIC Alone (ECM6703 (pUCP24-NDM-1)): Y (key: X: MIC of less than 1.0 μg/mL; Y: MIC of 1.0 μ/mL or above); Carbapenem MIC Alone [3]: Z (MIC of greater than 10 μg/mL); Carbapenem MIC Alone [4]: Z (MIC of greater than 10 μg/mL); Carbapenem MIC Alone [5]: Z (MIC of greater than 10 μg/mL); Carbapenem MIC Alone [6]: Z (MIC of greater than 10 μg/mL); Carbapenem MIC Alone [7]: Z (MIC of greater than 10 μg/mL); Carbapenem MIC Alone [8]: Z (MIC of greater than 10 μg/mL); Carbapenem MIC Alone (KP1054 (VIM-1, SHV-11)): Y (MIC of 1 μg/mL to 10 μg/mL); MIC (ECM6704 (pUCP24)): < 1 µg/mL
